Patent publication US20260035668A1, “ORGANOID CULTURE COMPOSITION FOR INDUCING RESERVE STEM CELLS AND CULTURE METHOD USING SAME” (KOREA UNIVERSITY RESEARCH AND BUSINESS FOUNDATION, priority 2022, published 2026)
“Also recorded” adds a separate entry of the source.

How the values were obtained:
Format in all cases: cell-based, C57Bl/6 mice
[1] = test system: small intestinal organoids; assay: Differentiation potential: Dclk1 (tuft cells) and UEA-1 (goblet cells) immunofluorescence; settings: culture medium comprising SAG vs control group not comprising SAG; FIG. 4
Method: Subsequently, 10 μM Y-27632 was added to the medium, and the organoids prepared in Example 1-1 were inoculated and cultured for 3 days. Then, 3 μM CHIR99021 (Sigma-Aldrich, Cat. No SML1046-5 MG) and 1 mM valproic acid (Sigma-Aldrich, Cat. No P4543-10G) were added and incubated for 4 days at 37° C. in a 5% CO2 incubator, followed by treatment with 1 μM SAG (Abcam, Cat. No ab142160) and incubation to culture the reserve stem cell-induced organoids.
(§1) Specifically, the organoids were fixed with 4% PFA, and 0.1% Triton X-100 in PBS was used to increase a permeability of the organoids. Subsequently, 3% BSA and 0.1% Triton X-100 were placed in a solution diluted in PBS for 1 hour to block a membrane of the organoids, and incubated with primary antibodies (anti-hTERT (ab32020, abcam), anti-Ki67 (ab16667, abcam), anti-Green Fluorescent Protein (GFP-1020, aveslabs), anti-Dclk1 (ab31704, abcam), anti-UEA 1 (RL-1062-2, Vector Laboratories)) at 4° C. for 1 day. After washing with PBS three times for 10 minutes at room temperature, incubation was performed with fluorescent secondary antibodies corresponding to each primary antibody for 2 hours. After washing gain with PBS three times for 10 minutes at room temperature, the organoid nuclei were stained with 4′, 6-diamidino-2-phenylindole, dihydrochloride (DAPI) for 5 minutes at room temperature. […]

[2] = test system: small intestine-derived organoids; assay: Expression of cell proliferation marker Ki-67 by immunofluorescence; settings: 1 μM SAG culture medium; 0, 24 and 48 hours after completion of culture; vs control group; FIG. 3
Method: as §1, with “temperature. In order to confirm the radiation resistance of reserve stem cell-derived organoids prepared in Example 1, the formation of small intestinal crypts and the expression of a cell proliferation marker Ki-67 were confirmed after radiation expose. Specifically, 3 μM CHIR99021 and 1 mM Valproic acid were added to advanced DMEM F/12 medium supplemented with HEPES, glutamax, N-acetylcysteine, N2, B-27, R-spodin, noggin, and EGF.” for “temperature.”

[3] = test system: small intestine-derived organoids; assay: Immunofluorescence of reserve stem cell marker TERT in SAG-treated organoids; settings: 1 μM SAG after 3 μM CHIR99021 + 1 mM valproic acid; over time after incubation; FIG. 1
Method: To prepare small intestine-derived organoids, small intestine tissue was isolated from 4 to 8 week-old C57Bl/6 mice and perfused with PBS. The tissue was cut into pieces of 2 to 4 mm in size, placed in PBS, and washed clearly about 10 times. Then, the tissue was placed in PBS containing 200 mM EDTA, and incubated at 4° C. for 1 hour with shaking. Thereafter, the cells detached from the tissue were passed through a 70 um cell strainer, and centrifuged at 200 g. Organoids were prepared by mixing Matrigel in a 1:1 volume ratio with a culture medium containing settled small intestinal crypts and then performing three-dimensional culture.
The medium was prepared by adding a 10 mM HEPES buffer, 1X glutamax, 1 mM N-acetylcysteine, 1 volume of N2, 2 volumes of B-27, 20 volumes of RSPO (R-spodin), 10 volumes of noggin per 100 volumes of total medium, and 50 ng/ml of EGF to advanced DMEM F/12 medium (Gibco™, Cat. No 12634010) as a basic medium for small intestine organoids.
Subsequently, 10 μM Y-27632 was added to the medium, and the organoids prepared in Example 1-1 were inoculated and cultured for 3 days. […]

[4] = test system: small intestine-derived organoids; assay: Radiation resistance: formation of small intestinal crypts after X-ray irradiation; settings: FIG. 2
Method: In order to confirm the radiation resistance of reserve stem cell-derived organoids prepared in Example 1, the formation of small intestinal crypts and the expression of a cell proliferation marker Ki-67 were confirmed after radiation expose. Specifically, 3 μM CHIR99021 and 1 mM Valproic acid were added to advanced DMEM F/12 medium supplemented with HEPES, glutamax, N-acetylcysteine, N2, B-27, R-spodin, noggin, and EGF. Thereafter, the organoids prepared in Example 1-1 were inoculated and cultured for 6 days, and then cultured for 3 days each under the conditions shown in the table below. [table] Then, the organoids cultured under each culture condition were irradiated once with 6 Gy of X-ray using a radiation irradiator (rs-320), and the formation of small intestinal crypts was confirmed after 72 hours.

CNC1CCC(N(Cc2cccc(-c3ccncc3)c2)C(=O)c2sc3ccccc3c2Cl)CC1 (stereo not drawn) [SAG, smoothened receptor agonist (SAG)]
Dclk1 (tuft cells) marker [1]: significantly increased compared to the control group
UEA-1 (goblet cells) marker [1]: significantly increased compared to the control group
expression of cell proliferation marker Ki-67 [2]: expressed at a significantly higher level than a control group at each time point
activity of TERT (reserve stem cell marker) [3]: significantly increased over time
formation of small intestinal crypts ([4]; 1 μM SAG + 3 μM CHIR99021 + 1 mM valproic acid, 3 days, 6 Gy X-ray once, after 72 hours, vs control groups 1 and 2): significantly better formation of small intestinal crypts compared to the other control groups
radiation resistance ([4]; 1 μM SAG, 6 Gy X-ray, vs control groups): had resistance to radiation; also recorded: significantly higher radiation resistance than the other control groups
